A short description of the experiment: Inhibition of HBV capsid assembly infected in human HepG2(2.2.15) cells assessed as inhibition of intracellular viral DNA level after 8 days by agarose gel electrophoresis method.

The results in this text go back to BindingDB's records for doi:10.1021/acs.jmedchem.6b01442 (Tsinghua University, 2017).

pIC50: −log10 of the molar value.

What is called pIC50 is the IC50 on a negative log10 scale, so that one unit is a factor of ten.

With `CC(=O)Nc1ccc(-c2cc(C)c(=O)n(Cc3ccc(Cl)cc3)n2)cc1`, the pIC50 is 5.72.
